Assays:
scopolamine-treated mice [1] = test: Novel object recognition (NOR) task after scopolamine challenge; format: in vivo; settings: scopolamine 0.5 mg/kg s.c.
Procedure: Both novel object recognition (NOR) and novel object location (NOL) tests were carried out in an open-field arena during three phases ([Leger et al., 2013]; [Vogel-Ciernia and Wood, 2014]; [Lueptow, 2017]). (i) For the habituation phase on the first day, mice were allowed to freely explore the empty apparatus. (ii) On the second day, two identical objects were placed at two opposite edges of the arena. Time spent by the mouse exploring the two objects was recorded. (iii) Twenty-four hours later, one of the two familiar objects was replaced by a novel one (NOR) or displaced (NOL). Mice were allowed to explore the whole arena during 10 min for each of the three phases. The preference index was calculated as the ratio of the duration of contacts with the novel/displaced object over the total duration of contacts with the two objects. Locomotion was recorded using EthoVision software (Noldus, Paris, France).

scopolamine-treated mice [2] = test: Y-maze spontaneous alternation task after scopolamine challenge; settings: scopolamine 0.5 mg/kg s.c.
Procedure: Mefloquine (Sigma-Aldrich, L’Isle d’Abeau Chesnes, France) and DPZ (Sigma-Aldrich) were dissolved in 2% dimethyl sulfoxide (DMSO) and administered acutely either intraperitoneally (i.p.) (5 mL/kg) or by oral gavage (p.o.) (10 mL/kg). Scopolamine (Sigma-Aldrich) was administered subcutaneously (s.c.) (5 mL/kg) in saline solution (0.9% NaCl).
Mice were placed at the end of one arm of a Y-maze and allowed to move freely through the maze during an 8-min session. Spontaneous alternation was defined as entries into all three arms on consecutive occasions. […] The number of total arm entries during the 8-min session was used to quantify locomotor activity.

astrocyte Cx expression = tested on: astrocyte Cx expression; parameters: method as in Biswas et al., 2018; settings: ref Biswas et al., 2018; cited from earlier work
[3] = tested on: scopolamine-treated mice injected with sh-GFP, sh-Cx30 or sh-Cx43; test: Novel object location (NOL) task in lentiviral vector-injected, scopolamine-treated mice; format: in vivo
[4] = tested on: ACh outflow in the hippocampus; test: Hippocampal microdialysis and quantification of ACh; format: in vivo, mice
Procedure: Mice were anesthetized with isoflurane, placed in a stereotaxic frame and bilaterally implanted with probes in both left and right hippocampi.
Concentrations of ACh in the microdialysis samples were analyzed by the Pronexus Analytical AB company (Stockholm, Sweden) using UHPLC tandem mass spectrometry (MS/MS). Briefly, the UHPLC-MS/MS system included a PAL autosampler (CTC Analytics, Zwingen, Switzerland), an Advance UHPLC pump, and an EVOQ Elite triple quadrupole mass spectrometer (Bruker Daltonics, Fremont, CA, United States) equipped with electrospray ionization source operating in a positive mode at +4,500 V. The source parameters were as follows: probe gas flow: 50, nebulizer gas flow: 60, probe temperature: +300°C, cone gas flow: 30, cone temperature: +200°C, CID gas: Ar 1.5 mTorr. A Titan PFP column (100 × 2.1 mm, 1.9 μm, 120 Å pore size) purchased from Sigma-Aldrich (Sweden) was used for UHPLC. Deuterated ACh (acetylcholine-1,1,2,2-d4 bromide; ACh-d4), used as internal standard, was purchased from C/D/N Isotopes (QMX Laboratories, Dunmow CM6 2PY, United Kingdom). Typically, 10 μL of aCSF or hippocampal microdialysate was mixed with 20 μL of ACh-d4 internal standard (50 nM, in aCSF), and 5 μL of the mixture was injected into the column. The mobile phase A was 0.1% (vol/vol) formic acid in water; the mobile phase B was acetonitrile with 0.1% formic acid. The linear elution gradient was as follows: 0–0.5 min: 5% B; 3.5 min: 55% B; 3.6 to 4.0 min: 70% B; 4.1 min, 5% B. The flow rate was 400 μL/min, and the total run-to-run time was 4.8 min. The calibration curve was linear in the range of 0.1 to 409.6 nM ACh (R^2 = 0.999); the estimated limit of detection was 0.05 nM, and the lower limit of quantification was 0.15 nM.
. 1 mg/kg, i.p.), or vehicle (NaCl 0.9%). Values are expressed as means ± SEM, n = 4–7 per group. Two-way ANOVA followed by Fisher least significant difference: *P < 0.05, **P < 0.01 vs Vehicle; […]. Acetylcholinesterase activity is expressed as percent of that determined in the absence of drugs. […]

[5] = tested on: Aβ25–35 peptide-injected mice; test: Morris water maze in Aβ25–35-injected mice
Source text: Control groups received the vehicles only under the very same conditions (volume, time, route of administration) as tested drugs.
Both peptides Aβ25–35 and Sc.Aβ (scramble Aβ25–35) were purchased from PolyPeptides (Strasbourg, France).
Mice were placed in a circular pool with external cues in the room. […] Training consisted of three swims with 20-min intertrial time each day for 5 days, performed between days 11 and 15 after Aβ25–35 peptide or Sc.Aβ peptide i.c.v. injection. Random starting positions were selected each day, and each animal was allowed a 90-s swim to find the platform. Probe test was performed 24 h after the last swim (day 16 after peptide injection). The platform was removed, and each animal was allowed a free 60-s swim. The time spent in each quadrant was determined. Swimming was recorded using EthoVision software (Noldus).

For COc1cc2c(cc1OC)C(=O)C(CC1CCN(Cc3ccccc3)CC1)C2 (stereo not drawn) [DPZ, Donepezil], which “NOR test session: effect on scopolamine-induced loss of novel object preference” value (scopolamine-treated mice [1]; DPZ 0.25 mg/kg i.p.) is on record?
The value was “Neither MEF1 i.p., nor DPZ0.25 i.p., prevented the scopolamine effect”.

What about the “NOR test session: effect on scopolamine-induced loss of novel object preference” value (scopolamine-treated mice [1]; DPZ 1 mg/kg i.p.) of the same compound?
The value was “restore exploration preference of the novel object”.

What about the “Spontaneous alternation (Y-maze): effect on scopolamine-induced deficit” value (from here on “Spontaneous alternation (Y-maze): effect”) (scopolamine-treated mice [2]; DPZ 0.1 mg/kg i.p. 40 min before task) of the same compound?
Its value is “exerted no effect”.

What about the “Spontaneous alternation (Y-maze): effect” value (scopolamine-treated mice [2]; DPZ 0.25 mg/kg p.o. 40 min before task) of the same compound?
The value was “did not reverse scopolamine-induced deficit”.

What about the “Spontaneous alternation (Y-maze): effect” value (scopolamine-treated mice [2]; DPZ 0.5 mg/kg i.p. 40 min before task) of the same compound?
Its value is “significantly reversed the scopolamine-induced deficit”.

What about the “Astrocyte Cx expression levels” value (astrocyte Cx expression) of the same compound?
Its value is “not to significantly alter astrocyte Cx expression levels”.

What about the “NOL task: effect on scopolamine-induced memory deficit” value (shortened to “NOL task: effect”) ([3]; DPZ 0.25 mg/kg i.p., sh-Cx30 group) of the same compound?
Its value is “significantly reduced the scopolamine effect”.

And the “NOL task: effect” value ([3]; DPZ 0.25 mg/kg i.p., sh-Cx43 group)?
Its value is “significantly reduced the scopolamine effect”.

And the “NOL task: effect” value ([3]; DPZ 0.25 mg/kg i.p., sh-GFP injected mice)?
The value was “unable to prevent the memory deficit caused by scopolamine”.

What about the “NOL task: effect” value ([3]; DPZ 1 mg/kg i.p., all groups (sh-GFP, sh-Cx30, sh-Cx43)) of the same compound?
The value was “able to prevent NOL memory deficits induced by scopolamine”.

And the “Hippocampal ACh outflow” value ([4]; DPZ 0.25 mg/kg i.p. alone)?
Its value is “did not significantly modify ACh outflow”.

What about the “Increase of hippocampal ACh levels” value ([4]; DPZ 1 mg/kg i.p., 20 min after injection) of the same compound?
Its value is “up to 2.5 fold”.

And the “Morris water maze learning (swim latency): effect on Aβ-induced memory deficit” value ([5]; DPZ 0.25 mg/kg p.o. daily)?
The value was “showed no effect”.

And the “Morris water maze probe test: time spent in target quadrant” value ([5]; DPZ 1 mg/kg p.o. daily, day 16)?
The value was “restored performance up to the level noted in Sc.Aβ-injected control mice”.

What about the “Morris water maze learning (swim latency): effect on Aβ-induced memory deficit” value ([5]; DPZ 1 mg/kg p.o. daily, learning days 2 to 5) of the same compound?
The value was “significantly reversed the Aβ-induced memory deficits”.
